For six compounds, Inhibition results are on record in US4652551A, “Renin inhibiting compounds” (Abbott Laboratories, priority 1985, dated 1987).

One test deals with T1, human renal renin (Homo sapiens, UniProt P00797).
T1 construct: human renal renin, free from acid proteolytic activity; from tissue; host or cells: human kidney (from the word 'renal')
T1 sequence (P00797 67-406): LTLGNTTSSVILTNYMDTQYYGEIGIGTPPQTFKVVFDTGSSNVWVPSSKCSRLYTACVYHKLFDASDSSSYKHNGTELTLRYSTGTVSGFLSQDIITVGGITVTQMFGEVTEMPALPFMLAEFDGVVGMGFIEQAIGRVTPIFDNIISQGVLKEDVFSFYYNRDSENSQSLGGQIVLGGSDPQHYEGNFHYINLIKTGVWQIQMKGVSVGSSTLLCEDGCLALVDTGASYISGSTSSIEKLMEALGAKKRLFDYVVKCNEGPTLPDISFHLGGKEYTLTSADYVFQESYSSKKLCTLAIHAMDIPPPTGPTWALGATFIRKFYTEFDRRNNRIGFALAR
The test is described as follows: In vitro inhibition of human renal renin (angiotensin I formed, measured by radioimmunoassay). Format: biochemical. The conditions noted are these: at 10^-5 M compound; human renin substrate (angiotensinogen), 37° C., pH 6.0. The method, then:
At the end of the incubation, the amount of angiotensin I formed is measured by radioimmunoassay and the present inhibition of renin is calculated.
What is called Inhibition is the change of the read-out against control, counted positive when it falls. The low end stands for a weak effect, the high end for a strong effect. In the case of `CC(C)CC(NC(=O)C(C)NC(=O)C(Cc1ccccc1)NC(=O)OC(C)(C)C)C(O)CCc1ccccc1` (stereo not drawn) [Example 1C, Boc-Phe-Ala amide of 4-amino-3-hydroxy-6-methyl-1-phenylheptane], the Inhibition stood at 35%. In turn, `CC(C)CCC(O)C(CC(C)C)NC(=O)C(C)NC(=O)C(Cc1ccccc1)NC(=O)OC(C)(C)C` (stereo not drawn) [Example 2C, Boc-Phe-Ala amide of 4-amino-2,8-dimethyl-5-hydroxynonane] returned an Inhibition of 85%. For `CC(C)CCC(O)C(CC(C)C)NC(=O)C(Cc1cnc[nH]1)NC(=O)C(Cc1ccccc1)NC(=O)OC(C)(C)C` (stereo not drawn) [Example 3, Boc-Phe-His amide of 4-amino-2,8-dimethyl-5-hydroxynonane], the Inhibition is reported as 89%.

Take `C=CCC(O)C(CC(C)C)NC(=O)C(C)NC(=O)C(Cc1ccccc1)NC(=O)OC(C)(C)C` (stereo not drawn) [Example 4C, Boc-Phe-Ala amide of 5-amino-4-hydroxy-7-methyl-1-octene]: the Inhibition is reported as 48%. On the same count and under the same terms, in the case of `C=CC(C)(C)C(O)C(CC(C)C)NC(=O)C(C)NC(=O)C(Cc1ccccc1)NC(=O)OC(C)(C)C` (stereo not drawn) [Example 5C, Boc-Phe-Ala amide of 5-amino-4-hyroxy-3,3,7-trimethyl-1-octene] it was 7%.

Still in this test, the particulars now being: at 10^-8 M compound; human renin substrate (angiotensinogen), 37° C., pH 6.0.
As for `CC(C)CCC(O)C(CC1CCCCC1)NC(=O)C(Cc1cnc[nH]1)NC(=O)C(Cc1ccccc1)NC(=O)OC(C)(C)C` (stereo not drawn) [Example 6C, Boc-Phe-His Amide of 2-Amino-1-cyclohexyl-3-hydroxy-6-methylheptane], the Inhibition is 47%.
